The source of these data is PMC5861127, “3-pyridyl inhibitors with novel activity against Trypanosoma cruzi reveal in vitro profiles can aid prediction of putative cytochrome P450 inhibition” (Scientific Reports, 2018).

As usually defined, the IC50 is the concentration needed to halve the response being measured.

Several values for one entry are separate records, joined by “and”; a condition that tells them apart may be missing. Equal values may be shown once. Read-outs that look alike come from different tables or passages of the source.

The test system of one assay is T. cruzi epimastigotes. The assay can be described thus: 120 hour T. cruzi epimastigote assay (PrestoBlue). Particulars: Trypanosoma cruzi. Type of assay: cell-based. The protocol: Additions were made with a Multidrop dispenser and compounds were added directly following parasite addition. Plates were incubated for 112 hours before the addition 10 µL of PrestoBlue® viability reagent (Thermo Fisher, USA). […] The positive control was NFX at a final concentration of 14.20 µM and 0.433% DMSO as a negative control.

A further assay has as its system HEK293 cells. The assay can be described thus: HEK293 assay (resazurin). Conditions: 120 hours; HEK293 / epimastigote IC50; NA = SI cannot be determined, tested to 79.4 µM. The format is cell-based, human. The protocol: […] […] Plates were incubated for 24 hours before the addition of compounds. […] The positive control was 32.5 μM puromycin and the negative control was 0.433% DMSO, slightly different to the T. cruzi assay due to the change in volume, whilst utilising the same stock control plate. […] […] […] This was only undertaken for the amastigote assay. Dilutions were prepared with a multichannel pipette ([…], Thermo Fisher Scientific, USA) in 384-well polypropylene plates (Corning, NY, USA).
(Resazurin is reduced to fluorescent resorufin, in cell work by metabolically active cells.)

Assay [1] concerns T. cruzi amastigotes. The assay can be described thus: T. cruzi image-based assay (48 hour, intracellular amastigotes in 3T3 host cells). The format is cell-based, Trypanosoma cruzi. Particulars: for Emax: 48 h; for IC50: intracellular amastigotes in 3T3 cells, retested from DMSO stocks (CF from solid sample, temporal experiments). The protocol:
The assay was performed as previously described. […] One wash was undertaken by using a Multidrop plate dispenser and two washes with a Bravo liquid handling device (Agilent Technologies, USA). Five microlitres of compound were added to plates and incubated for 48 hours. Cells were then fixed and stained with Hoechst (Life Technologies, USA) and HCS CellMaskTM Green (Life Technologies, USA) and image acquisition was performed an OperaTM High Content Screening System (PerkinElmer, USA) at 20 times magnification. […] The maximum activity achievable (Emax) of compounds was determined by taking (or as close to, if concentrations in the Emax were limited) the percentage activity at the mid concentration within the plateau of activity in the concentration response curve (see Supplemental Fig. 1, example NFX). […] Final assay concentrations of compounds ranged from 4.03 μM to 4.03 × 10^-3 μM. […] This was only undertaken for the amastigote assay. Dilutions were prepared with a multichannel pipette ([…], Thermo Fisher Scientific, USA) in 384-well polypropylene plates (Corning, NY, USA). […] Compound IC50 values in the TcCYP51 in vitro assay were calculated in GraFit (Erithacus software) by non-linear slope analysis. All data are presented as mean ± standard deviation. The significance of % clearance of parasites at compound Emax concentrations was calculated in Prism 5.0, using an unpaired student's t-test.

The test system of assay [2] is T. cruzi amastigotes. Briefly: Wash-off assay to assess parasite survival following compound removal. The format is cell-based. Particulars: Trypanosoma cruzi, 48 hours incubation, additional 72 hours without compound, read-out: percentage activity at the Emax, wash-off assay. The protocol: The T. cruzi assay 48 hour assay was performed. Following, plates were washed 5 times with PBS (containing Mg^2+ and Ca^2+) on a Bravo liquid handler to remove compound pressure. Plates were incubated for an additional 72 hours and wells were washed 5 times before fluorescent labels were added. Plates were imaged on an Opera confocal-based high-content system with 7 fields per well acquired, at 20 times magnification. […] Four experimental replicates were undertaken.

Assay [3] relates to T. cruzi amastigotes. Briefly: 24 hour image-based assay. The format is cell-based. Conditions: Trypanosoma cruzi; for IC50: n of 2, read-out: IC50 value, 24 hours incubation; for Emax: plateau/Emax concentrations, read-out: % activity at the Emax, 24 hours incubation. The protocol: Compounds were added to assay plates as described for the 48 hour assay, although incubation time was decreased to 24 hours. […] Two experimental replicates were performed.

Another assay relates to 3T3 host cells. Briefly: 3T3 host cell activity in the T. cruzi image-based assay. Further details: species or system mouse. Conditions: for CC50: Mus musculus, NIH3T3, 48 hours, no activity up to top concentration, read-out: IC50 value against 3T3 cells used for SI; for SI to 3T3: ratio 3T3 host cell / parasite IC50, 48 hours. The protocol: To calculate compound activity, 12.0 µM NFX was used as a positive control and 0.366% DMSO was used as a negative control. To determine the activity against the host cell, 30.0 µM of puromycin was used as a positive control. The percentage normalised activity was determined using the equation outlined in our previous publication[19] and the reproducibility of the assay was determined using the Z’-factor[20].
The assay was performed as previously described. Briefly, 3T3 cells were seeded at a concentration of 1 × 10^3 cells in 50 µL per well into collagen I coated 384-well plates (PerkinElmer, USA). Following 24 hours incubation at 37 °C and 5% CO2, 10 µL of parasites were added to wells at a multiplicity of infection (MOI) of 5:1 (parasites: host cells) with a Multidrop™ dispenser (Thermo Fisher, USA). Following 24 hours incubation, wells were washed with PBS (containing Mg^2+ and Ca^2+) to remove uninfected parasites. One wash was undertaken by using a Multidrop plate dispenser and two washes with a Bravo liquid handling device (Agilent Technologies, USA). Five microlitres of compound were added to plates and incubated for 48 hours. Cells were then fixed and stained with Hoechst (Life Technologies, USA) and HCS CellMask™ Green (Life Technologies, USA) and image acquisition was performed an Opera™ High Content Screening System (PerkinElmer, USA) at 20 times magnification. The positive control was 12.0 µM NFX and the negative control was 0.366% DMSO.

Assay [4] concerns T. cruzi amastigotes. The assay can be described thus: 96 hour image-based assay. Type of assay: cell-based, Trypanosoma cruzi. Particulars: for Emax: Trypanosoma cruzi. The protocol: The assay format was the same as the 48 hour assay, although plates were incubated for 96 hours. […] Two extra wash steps were included to remove as many extracellular parasites as possible to reduce impact on determination of intracellular parasites. […] Two experimental replicates were undertaken.

The target of a further assay is recombinant TcCYP51 (Trypanosoma cruzi, UniProt Q7Z1V1). The format is biochemical. The protocol:
The activity of compounds against TcCYP51 was determined at the University of Dundee as outlined previously. This assay utilises the fluorogenic probe benzyloxymethyloxycyanocoumarin (BOMCC), activated by TcCYP51. […] Preliminarily testing of MMV001239 was performed using this assay, with 1 replicate concentration response curve generated to establish whether it was a putative TcCYP51 inhibitor.
Compound IC50 values in the T. cruzi and HEK293 cell-based assays were determined using Prism 5.0 (GraphPad software), derived by a sigmoidal concentration response (variable slope) analysis. Compound IC50 values in the TcCYP51 in vitro assay were calculated in GraFit (Erithacus software) by non-linear slope analysis. All data are presented as mean ± standard deviation. The significance of % clearance of parasites at compound Emax concentrations was calculated in Prism 5.0, using an unpaired student’s t-test.

The mark [5] stands for this setting: DMSO stocks (CF from solid sample), relative to nifurtimox control.
Where [6] appears, read: Trypanosoma cruzi, DMSO stocks (CF from solid sample), relative to nifurtimox control, read-out: % activity (Emax).
[7] abbreviates: Trypanosoma cruzi, NIH3T3, 48 h.
The mark [8] stands for this setting: difference 96 hours minus 48 hours.

recombinant TcCYP51, sequence (Q7Z1V1 whole entry): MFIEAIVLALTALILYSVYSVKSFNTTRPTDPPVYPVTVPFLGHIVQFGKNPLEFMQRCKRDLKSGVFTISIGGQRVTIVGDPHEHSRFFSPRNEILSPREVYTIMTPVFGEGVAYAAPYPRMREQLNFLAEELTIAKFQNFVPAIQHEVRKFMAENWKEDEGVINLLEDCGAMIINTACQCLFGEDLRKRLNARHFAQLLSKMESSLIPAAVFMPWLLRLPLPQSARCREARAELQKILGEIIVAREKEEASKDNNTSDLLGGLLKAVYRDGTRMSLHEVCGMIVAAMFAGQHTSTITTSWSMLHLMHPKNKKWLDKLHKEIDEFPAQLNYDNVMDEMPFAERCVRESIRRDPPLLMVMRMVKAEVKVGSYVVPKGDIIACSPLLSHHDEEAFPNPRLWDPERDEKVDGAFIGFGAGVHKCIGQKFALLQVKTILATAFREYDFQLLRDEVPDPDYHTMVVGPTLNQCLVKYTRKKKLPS

Take `O=C(Cn1ccnc1[N+](=O)[O-])NCc1ccccc1` [BZ, benznidazole]: the IC50 was 5780 ± 477 nM in the assay on T. cruzi epimastigotes, 3560 ± 2340 nM with T. cruzi amastigotes [1] (setting [7]) and 7560 ± 2370 nM in the assay on T. cruzi amastigotes [3]. In addition, the “SI to HEK293 cells” value with HEK293 cells is listed as over 26.1. Further, the “% activity (Emax)” value in the assay with T. cruzi amastigotes [1] (setting [5]) stood at 99.5 ± 2.12%. The Emax in the assay with T. cruzi amastigotes [1] (setting [6]), in the assay on T. cruzi amastigotes [2] and with T. cruzi amastigotes [3] was 100% each time. Besides, the CC50 in the assay with 3T3 host cells was over 127000 nM. For the same molecule, the “SI to 3T3” value in the assay with 3T3 host cells is over 35.7. The “increase in activity at the Emax from 48 to 96 hours incubation” value with T. cruzi amastigotes [4] (setting [8]) is on record as “no difference”.

`CCc1ccc(NC(=O)N(Cc2cccnc2)Cc2ccccc2Cl)cc1` [Compound 1, 1-(2-Chlorobenzyl)-3-(4-ethylphenyl)-1-(3-pyridinylmethyl)urea]: the Emax in the assay on T. cruzi amastigotes [1] (setting [6]) is 84.5 ± 6.36%. Also, it took 3480 ± 622 nM to reach half-maximal inhibition in the assay on T. cruzi amastigotes [1] (setting [7]) (IC50). Moreover, in the assay on 3T3 host cells, the CC50 is over 18300 nM and the “SI to 3T3” value is over 5.26.

Consider `CCOC(=O)C(=O)NCC(c1cccnc1)N1CCN(c2ccccc2)CC1` (centres unmarked) [Compound 2], for which the “% activity (Emax)” value with T. cruzi amastigotes [1] (setting [5]) worked out at 76.5 ± 3.54%. Further, the IC50 in the assay on T. cruzi amastigotes [1] amounted to 2170 ± 499 nM; on recombinant TcCYP51 (BOMCC probe, read-out: IC50 value against recombinant TcCYP51) it was 562 ± 130 nM. Moreover, in the assay with 3T3 host cells, the “SI to 3T3” value is over 8.43.

`CC(=O)N1CCC(N(Cc2cccnc2)C(=O)Nc2ccc(Cl)cc2)CC1` [Compound 3, 1-(1-Acetyl-4-piperidinyl)-3-(4-chlorophenyl)-1-(3-pyridinylmethyl)urea]: the Emax in the assay with T. cruzi amastigotes [1] (setting [6]) turned out to be 70.5 ± 0.707%. In addition, the 50% inhibitory concentration (IC50) with T. cruzi amastigotes [1] (setting [7]) was 1290 ± 368 nM. Also, in the assay with 3T3 host cells, the CC50 is over 18300 nM and the “SI to 3T3” value is recorded as over 14.2.

Regarding `CCOc1ccc(NC(=O)N(Cc2ccc(C)cc2)Cc2cccnc2)cc1` [Compound 4, 3-(4-Ethoxyphenyl)-1-(4-methylbenzyl)-1-(3-pyridinylmethyl)urea], the Emax in the assay on T. cruzi amastigotes [1] (setting [6]) is 76 ± 1.41%. For the same molecule, the IC50 in the assay with T. cruzi amastigotes [1] (setting [7]) is 1400 ± 79.9 nM. In the assay with 3T3 host cells, the CC50 is over 18300 nM and the “SI to 3T3” value is listed as over 13.1.

On to `Cc1ccc(CN(Cc2cccnc2)C(=O)Nc2ccc(Cl)c(Cl)c2)cc1` [Compound 5, 3-(3,4-Dichlorophenyl)-1-(4-methylbenzyl)-1-(3-pyridinylmethyl)urea], for which the Emax in the assay on T. cruzi amastigotes [1] (setting [6]) was found to be 88 ± 9.9%. Further, the IC50 in the assay with T. cruzi amastigotes [1] (setting [7]) turned out to be 1800 ± 3.54 nM; with T. cruzi amastigotes [1], 1820 ± 3.54 nM. In addition, the CC50 in the assay with 3T3 host cells was over 18300 nM. Besides, the “SI to 3T3” value with 3T3 host cells is over 10.0.

Consider `COc1ccc2sc(N(Cc3cccnc3)C(=O)c3ccc(C#N)cc3)nc2c1` [MMV001239], for which the “percentage activity at the Emax, 48 hours incubation (temporal experiments, Fig. 3)” value in the assay with T. cruzi amastigotes [1] (n of 4) was 85 ± 6.4% and 84.8%. The half-maximal inhibitory concentration (IC50) on recombinant TcCYP51 (single concentration response curve, read-out: IC50 value against recombinant TcCYP51, preliminary) turned out to be 46 nM.

`CC1CS(=O)(=O)CCN1/N=C/c1ccc([N+](=O)[O-])o1` (centres unmarked) [NFX, nifurtimox]: the IC50 was determined as 1110 ± 131 nM with T. cruzi epimastigotes, 709 ± 161 nM in the assay with T. cruzi amastigotes [1] (setting [7]) and 1200 ± 21.3 nM with T. cruzi amastigotes [3]. Further, in the assay with HEK293 cells, the “SI to HEK293 cells” value is over 136. The “% activity (Emax)” value in the assay on T. cruzi amastigotes [1] (setting [5]) was 102 ± 1.41%. Besides, the Emax in the assay on T. cruzi amastigotes [1] (setting [6]), in the assay with T. cruzi amastigotes [2] and in the assay with T. cruzi amastigotes [3] was 100% in each case. Besides, the CC50 in the assay on 3T3 host cells is over 127000 nM. In addition, in the assay on 3T3 host cells, the “SI to 3T3” value was over 179. For the same molecule, the “increase in activity at the Emax from 48 to 96 hours incubation” value in the assay with T. cruzi amastigotes [4] (setting [8]) is “no difference”.

Take `CC[C@@H]([C@H](C)O)n1ncn(-c2ccc(N3CCN(c4ccc(OC[C@@H]5CO[C@@](Cn6cncn6)(c6ccc(F)cc6F)C5)cc4)CC3)cc2)c1=O` [POSA, posaconazole]: the Emax was 70 ± 8.49% in the assay with T. cruzi amastigotes [1] (setting [6]); 75.3% in the assay with T. cruzi amastigotes [1] (Trypanosoma cruzi, n of 4, read-out: percentage activity at the Emax, 48 hours incubation (temporal experiments, Fig. 3)); 94% in the assay with T. cruzi amastigotes [2]; under 50% in the assay with T. cruzi amastigotes [3]; 96.5% in the assay on T. cruzi amastigotes [4] (96 hours, n of 2, read-out: reduction in infected cells at the Emax, 96 hours exposure); 21.3% in the assay on T. cruzi amastigotes [4] (difference 96 hours minus 48 hours, read-out: increase in activity at the Emax from 48 to 96 hours incubation). Also, the CC50 in the assay with 3T3 host cells is 1000 nM.

For the molecule `COc1ccc(C[C@H](N)C(=O)N[C@H]2[C@@H](O)[C@H](n3cnc4c(N(C)C)ncnc43)O[C@@H]2CO)cc1` [PURO, puromycin], the values for the half-maximal inhibitory concentration (IC50) with T. cruzi epimastigotes and with T. cruzi amastigotes [1] (setting [7]) were 566 ± 141 nM and 2010 ± 329 nM, respectively. In the assay on HEK293 cells, the “SI to HEK293 cells” value is given as 0.386. For the same molecule, the “SI to 3T3” value in the assay on 3T3 host cells was 1.36.
